Reference: the METLIN SMRT retention time set (Domingo-Almenara et al. 2019)

Assay: gradient 5% acetonitrile 3 min, to 50% in 2 min, to 85% in 15 min, held 3 min, 100 µL/min
Conditions: column: Zorbax Extend-C18 2.1 x 50 mm; eluents: water / acetonitrile, 0.1% formic acid
Method in brief: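 Retention times of pure standards were taken from adduct peaks that were selected by computer and manually inspected. Over 3 months, mixtures of ~100 molecules were run by HPLC–quadrupole time-of-flight mass spectrometry in positive and negative ionization mode. The Zorbax Extend-C18 column (2.1 × 50 mm, 1.8 μm) ran at 100 μL/min in water and acetonitrile, each containing 0.1% formic acid, with 40 μL dead volume and 900 μL dwell volume.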

| Structure (SMILES) | RP-LC retention time [s] |
| --- | --- |
| COc1ccc(C2(C)OC(c3cc(C)nc4ccccc34)=NN2C(C)=O)c(OC)c1 (stereo unspecified) | 818 |
| COc1ccccc1N1CCN(C(=O)C2=CCN(Cc3ccccc3)CC2)CC1 | 629 |
| CS(=O)(=O)N1CCCNCCNC(=O)CC1c1ccccc1 (stereo unspecified) | 572 |
| Cc1cc(=O)n(CC(=O)Nc2ccc(C)c(C)c2)c(N2CCCCC2)n1 | 717 |
| CCCCCNC(=O)CCc1nnc2c3cc(-c4ccc(C)c(C)c4)nn3ccn12 | 872 |
| O=C(Cc1cccs1)N1CCN(c2ccc(=O)n(-c3ccc(Cl)cc3)n2)CC1 | 804 |
| Cc1cc2[nH]c(=O)[nH]c2cc1S(=O)(=O)N1CCN(Cc2ccccc2)CC1 | 548 |
| O=C(Nc1nc(-c2ccccc2Cl)cs1)c1cccnc1 | 858 |
| Cc1ccc(NC(=O)c2cc(C(C)C)n(C3CCS(=O)(=O)C3)n2)cc1C (stereo unspecified) | 949 |
| CCC1(C(=O)Nc2ccc(C)cc2)CCCCC(=O)N1 (stereo unspecified) | 736 |
| O=C(NCc1cccs1)c1ccc(N2CCCCS2(=O)=O)cc1 | 696 |
| COC(=O)c1c(C)[nH]c(C(=O)N2CCCC(C(=O)NCCC(C)C)C2)c1C (stereo unspecified) | 730 |
| CCc1nc(-c2ccc3c(c2)CCN3C(=O)Cc2ccc(NC(C)=O)cc2)no1 | 796 |
| CSc1cccc(NC(=O)N2CCN(C3=CC4=NCC(C)N4C=N3)CC2)c1 (stereo unspecified) | 650 |
| CCCCNC(=O)C1CCCN(C(=O)c2[nH]c(C)c(C(=O)OCC)c2C)C1 (stereo unspecified) | 756 |
| Cn1cc(C2=CCN(S(=O)(=O)c3cccc4nsnc34)CC2)c2cccnc21 | 893 |
| CCc1cccc(N2C(=O)CN(S(C)(=O)=O)CC2(C)C(=O)NCc2ccccc2)c1 (stereo unspecified) | 804 |
| Cc1noc(C)c1S(=O)(=O)N1CC(c2nnc(-c3ccncc3)o2)C2(CCOCC2)C1 (stereo unspecified) | 663 |
| Cc1ccc(CN2C[C@@H](CO)[C@H](NC(=O)c3cnccn3)C2)o1 | 550 |
| Fc1cccc(CN2CCC(N3CC4(CCCCC4)C3c3ccncc3)CC2)c1 (stereo unspecified) | 560 |
| CC1CCCN(CCCNC(=O)CCCN2C(=O)CCn3nc(-c4cccn4C)cc32)C1 (stereo unspecified) | 614 |
| O=C(Cc1cccs1)NC(Cc1ccccc1)c1nnc(N2CCCCC2)o1 (stereo unspecified) | 843 |

| Structure (SMILES) | RP-LC retention time [s] |
| --- | --- |
| Cc1ccc(C)c(S(=O)(=O)N2CCC3(CC2)NCCN=C3NCc2ccccc2C)c1 | 787 |
| COCCNC(=O)C1CCN(c2cncnc2N2CCCC2)CC1 | 580 |
| CC1=NS(=O)(=O)N(C)C=C1C(=O)OCc1nc(-c2ccc(Cl)cc2)no1 | 1010 |
| Cc1noc(C)c1CN1CCC(NC(=O)c2ccc3cc[nH]c3c2)CC1 | 596 |
| Cc1sc2ccn(CC(C)C)c(=O)c2c1C(=O)N1CCCCCC1 | 897 |
| Cc1cc(OCC(=O)NCc2ccc3c(c2)OCO3)nc(-c2ccc(F)cc2)n1 | 942 |
| O=C(CSc1nccc2ccccc12)Nc1ccccc1C(F)(F)F | 1080 |
| COc1cccc(C2Cn3nnc(-c4nc(-c5ccc(OC(F)(F)F)cc5)no4)c3CO2)c1 (stereo unspecified) | 1310 |
| COc1ccccc1CNC(=O)Cn1c(=O)cc(-c2nc(C)no2)c2ccccc21 | 836 |
| CCN(C(=O)c1cc(OC)cc(OC)c1)c1nc(-c2ccccc2)cs1 | 1260 |
| COc1cccc(-c2cn3ccn(-c4ccc(F)c(Cl)c4)c(=O)c3n2)c1 | 859 |
| CNC(=O)C1CN(C(=O)c2ccccc2Cl)CC12CCCC2 (stereo unspecified) | 665 |
| Cc1ccc(Nc2c(-c3ccc(Cl)cc3)nc3cnccn23)c(C)c1 | 1080 |
| COc1cc2oc3cc(C)oc(=O)c3c2cc1OC | 841 |
| O=C(/C=C/c1ccc(O)c(O)c1)c1ccc(O[C@@H]2O[C@H](CO)[C@@H](O)[C@H](O)[C@H]2O)c(O)c1O | 641 |
| Cc1nnsc1C(=O)N1CCC(CNC(=O)C(C)(C)Oc2ccc(Cl)cc2)CC1 | 806 |
| CCOc1ccc(-c2[nH]ncc2CNS(=O)(=O)Cc2ccccc2Cl)cc1 | 846 |
| CCCCNC(=O)CN1C(=O)CCn2nc(-c3cn(C)c4ccccc34)cc21 | 771 |
| O=C(O)CN1C(=O)CN=C(c2ccccn2)c2cc(Cl)ccc21 | 696 |
| COCc1noc([C@@H]2CN(C(=O)CCc3c(C)noc3C)C[C@H]2C(N)=O)n1 | 607 |
| O=S(=O)(c1ccc(F)cc1)N1CCC(OCCOCc2ccccc2)CC1 | 1060 |
| Cc1ccc(NC(=O)N2CCCN(c3ccc(=O)n(-c4ccccc4)n3)CC2)c(C)c1 | 763 |

| Structure (SMILES) | RP-LC retention time [s] |
| --- | --- |
| CCN1C(=O)c2ccccc2Oc2ccc(C(=O)NCc3ccc(N(C)C)cc3)cc21 | 670 |
| Cc1ccc(-n2nc(N3CCN(C(=O)Nc4ccc(Cl)cc4)CC3)ccc2=O)cc1 | 894 |
| CCC(=O)Nc1nc(-c2ccc3c(c2)NC(=O)C(C)O3)c(C)s1 (stereo unspecified) | 759 |
| Cc1ccc2c(Nc3ccc4c(c3)OCCO4)c(C(=O)N3CCOCC3)cnc2n1 | 577 |
| COc1ccccc1Oc1ccc(S(=O)(=O)NCC(=O)O)cc1 | 708 |
| Cc1oc(-c2[nH]ncc2C(=O)N(C)C)cc1S(=O)(=O)NCC(C)C | 671 |
| O=C(NCCN1CCOCC1)C1CCc2sc(C(=O)N3CCCCC3)cc2C1 (stereo unspecified) | 563 |
| CC(C)(C)c1ccc(C(=O)Nc2ccc3nnc(C4CCC4)n3c2)cc1 | 772 |
| O=C(Nc1cccc(N2CCCCC2=O)c1)OCc1ccccc1 | 724 |
| O=C(c1ccc(-c2cccnc2)nc1)N1CCN(c2ccc(Cl)cc2)CC1 | 746 |
| COCCNc1c(-c2ccccc2)nc2sc(C(=O)N3CCCC3)c(C)n12 | 922 |
| CCC(C)n1ncn(-c2ccc(N3CCN(c4ccc(OC[C@@H]5CO[C@@](Cn6cncn6)(c6ccc(Cl)cc6Cl)O5)cc4)CC3)cc2)c1=O (stereo partly specified) | 1060 |
| CCc1nccn1Cc1noc(-c2ccccc2Cl)n1 | 564 |
| CCn1c(C(=O)NCCN2CCCCC2C)c(N2CCCC2=O)c2cc(OC)ccc21 (stereo unspecified) | 637 |
| COc1ccc(NC(=O)CN2C(=O)NC3(CCC(C)CC3)C2=O)cc1OC (stereo unspecified) | 720 |
| COCCn1cc(CC(=O)Nc2cccc(SC)c2)c2cccnc21 | 787 |
| Cc1ccc(CNC(=O)C(=O)NCCO)cc1 | 600 |
| CC(C)Oc1ccccc1CN1C[C@@H]2C(=O)N(C)C(=O)[C@@H]2C1 | 616 |
| Fc1cccc(-c2nc(Cn3ccnc3)no2)c1 | 577 |
| Cn1cc(S(=O)(=O)N2CCC(C(=O)Nc3cccc(C#N)c3)CC2)cc1C(=O)N1CCCC1 | 751 |
| Cc1ccc(NC(=O)N2CCN(c3cnn4c(C)nnc4c3)CC2)cc1 | 563 |
| CCOc1ccc(NC(=O)CN2CCc3c(c(=O)c4cc(C)ccc4n3C)C2)cc1 | 637 |
